In ChEMBL document CHEMBL5385929, “Tabersonine Enhances Olaparib Sensitivity through FHL1-Mediated Epithelial-Mesenchymal Transition in an Ovarian Tumor” (J Nat Prod, 2024):
Calls of active or inactive are those of the source. No cut-off for these calls is given here.

Columns and labels:
A2780 [1] = test: Potentiation of olaparib sensitivity in human A2780 cells assessed as downregulation of EMT signaling by measuring upregulation of E-cadherin protein expression at 10 uM in presence of olaparib by western blot analysis; format: functional, cell-based
A2780 [2] = test: Potentiation of olaparib sensitivity in human A2780 cells transfected with shFHL1-1 RNA assessed as inhibition of cell invasion at 10 uM measured after 48 hrs in presence of olaparib by Transwell assay; format: functional, cell-based
SK-OV-3 [3] = test: Potentiation of olaparib sensitivity in human SK-OV-3 cells transfected with shFHL1-2 RNA assessed as inhibition of cell migration at 10 uM measured after 24 to 48 hrs in presence of olaparib by wound healing assay; format: functional, cell-based; details: time 24-48 hrs
SK-OV-3 [4] = test: Downregulation of EMT signalling in human SK-OV-3 cells transfected with shFHL1-2 RNA assessed as E-cadherin protein expression at 10 uM by western blot analysis; format: functional, cell-based
A2780 [5] = test: Potentiation of olaparib sensitivity in human A2780 cells assessed as inhibition of cell migration at 10 uM measured after 24 to 48 hrs in presence of olaparib by wound healing assay; format: functional, cell-based; details: time 24-48 hrs
SK-OV-3 [6] = test: Potentiation of olaparib sensitivity in human SK-OV-3 cells assessed as inhibition of cell viability at 10 uM measured after 5 days in presence of olaparib by CCK8 assay; format: functional, cell-based; details: time 5.0 day
A2780 [7] = test: Potentiation of olaparib sensitivity in human A2780 cells assessed as induction of DNA damage response by measuring increase in tail moment at 10 uM measured after 48 hrs in presence of olaparib by alkaline comet assay; format: functional, cell-based
SK-OV-3 [8] = test: Potentiation of olaparib sensitivity in human SK-OV-3 cells transfected with shFLH1-2 RNA assessed as downregulation of EMT signaling by measuring E-cadherin protein expression at 10 uM in presence of olaparib by western blot analysis; format: functional, cell-based
A2780 [9] = test: Synergistic antiproliferative activity against human A2780 cells assessed as combination index for reduction of cell viability in presence of olaparib by CCK8 assay; format: functional
A2780 [10] = test: Potentiation of olaparib-induced antitumor activity against shFHL1-1 RNA-transfected human A2780 cells xenografted in BALB/c mouse assessed as decrease in tumor weight at 15 mg/kg, ip co-administered with olaparib for 2 weeks; format: functional, organism-based
A2780 [11] = test: Inhibition of cell migration in human A2780 cells transfected with shFHL1-1 RNA at 10 uM measured after 24 to 48 hrs by wound healing assay; format: functional, cell-based; details: time 24-48 hrs
Mus musculus [12] = test: Potentiation of olaparib sensitivity in BALB/c mouse xenografted with shFHL1-1 RNA-transfected human A2780 cells assessed as upregulation of FHL1 protein expression in tumor at 15 mg/kg, ip co-administered with olaparib for 2 weeks by western blot analysis; format: functional, organism-based
A2780 [13] = test: Potentiation of olaparib sensitivity in human A2780 cells assessed as inhibition of cell viability at 10 uM measured after 5 days in presence of olaparib by CCK8 assay; format: functional, cell-based; details: time 5.0 day
A2780 [14] = test: Downregulation of EMT signalling in human A2780 cells transfected with shFHL1-1 RNA assessed as N-cadherin protein expression at 10 uM by western blot analysis; format: functional, cell-based
A2780 [15] = test: Potentiation of olaparib-induced antitumor activity against human A2780 cells xenografted in BALB/c mouse assessed as decrease in tumor weight at 15 mg/kg, ip co-administered with olaparib for 2 weeks; format: functional, organism-based
A2780 [16] = test: Potentiation of olaparib sensitivity in human A2780 cells transfected with shFHL1-2 RNA assessed as inhibition of cell migration at 10 uM measured after 24 to 48 hrs in presence of olaparib by wound healing assay; format: functional, cell-based; details: time 24-48 hrs
A2780 [17] = test: Potentiation of olaparib sensitivity in human A2780 cells transfected with shFLH1-2 RNA assessed as downregulation of EMT signaling by measuring N-cadherin protein expression at 10 uM in presence of olaparib by western blot analysis; format: functional, cell-based
SK-OV-3 [18] = test: Potentiation of olaparib sensitivity in human SK-OV-3 cells assessed as downregulation of EMT signaling by measuring downregulation of N-cadherin protein expression at 10 uM in presence of olaparib by western blot analysis; format: functional, cell-based
SK-OV-3 [19] = test: Inhibition of cell migration in human SK-OV-3 cells at 10 uM measured after 24 to 48 hrs by wound healing assay; format: functional, cell-based; details: time 24-48 hrs
A2780 [20] = test: Downregulation of EMT signalling in human A2780 cells assessed as downregulation of N-cadherin protein expression at 10 uM by western blot analysis; format: functional, cell-based
SK-OV-3 [21] = test: Potentiation of olaparib sensitivity in human SK-OV-3 cells transfected with shFLH1-1 RNA assessed as downregulation of EMT signaling by measuring E-cadherin protein expression at 10 uM in presence of olaparib by western blot analysis; format: functional, cell-based
Mus musculus [22] = test: Potentiation of olaparib sensitivity in BALB/c mouse xenografted with shNC RNA-transfected human A2780 cells assessed as downregulation of vimentin protein expression in tumor at 15 mg/kg, ip co-administered with olaparib for 2 weeks by western blot analysis; format: functional, organism-based
SK-OV-3 [23] = test: Potentiation of olaparib sensitivity in human SK-OV-3 cells assessed as inhibition of colony formation at 10 uM incubated for 48 hrs in presence of olaparib followed by drug wash-out and incubated in fresh medium for 2 weeks by crystal violet staining based analysis; format: functional, cell-based
SK-OV-3 [24] = test: Downregulation of EMT signalling in human SK-OV-3 cells assessed as downregulation of vimentin protein expression at 10 uM by western blot analysis; format: functional, cell-based
A2780 [25] = test: Inhibition of cell invasion in human A2780 cells at 10 uM measured after 48 hrs by Transwell assay; format: functional, cell-based
SK-OV-3 [26] = test: Potentiation of olaparib sensitivity in human SK-OV-3 cells assessed as inhibition of cell invasion at 10 uM measured after 48 hrs in presence of olaparib by Transwell assay; format: functional, cell-based
A2780 [27] = test: Potentiation of olaparib sensitivity in human A2780 cells transfected with shFLH1-1 RNA assessed as downregulation of EMT signaling by measuring N-cadherin protein expression at 10 uM in presence of olaparib by western blot analysis; format: functional, cell-based
SK-OV-3 [28] = test: Downregulation of EMT signalling in human SK-OV-3 cells assessed as downregulation of N-cadherin protein expression at 10 uM by western blot analysis; format: functional, cell-based
A2780 [29] = test: Inhibition of cell migration in human A2780 cells transfected with shFHL1-2 RNA at 10 uM measured after 24 to 48 hrs by wound healing assay; format: functional, cell-based; details: time 24-48 hrs
SK-OV-3 [30] = test: Downregulation of EMT signalling in human SK-OV-3 cells transfected with shFHL1-1 RNA assessed as E-cadherin protein expression at 10 uM by western blot analysis; format: functional, cell-based
A2780 [31] = test: Inhibition of cell migration in human A2780 cells at 10 uM measured after 24 to 48 hrs by wound healing assay; format: functional, cell-based; details: time 24-48 hrs
SK-OV-3 [32] = test: Potentiation of olaparib sensitivity in human SK-OV-3 cells transfected with shFLH1-2 RNA assessed as downregulation of EMT signaling by measuring vimentin protein expression at 10 uM in presence of olaparib by western blot analysis; format: functional, cell-based
A2780 [33] = test: Potentiation of olaparib-induced antitumor activity against human A2780 cells xenografted in BALB/c mouse assessed as decrease in tumor volume at 15 mg/kg, ip co-administered with olaparib for 2 weeks; format: functional, organism-based

## CC[C@]12C=CCN3CC[C@]4(C(=C(C(=O)OC)C1)Nc1ccccc14)[C@@H]32 [TABERSONINE]
A2780 [1]
  Activity: Active
A2780 [2]
  Activity: inactive
SK-OV-3 [3]
  Activity: inactive
SK-OV-3 [4]
  inhibition: inactive
A2780 [5]
  Activity: Active
SK-OV-3 [6]
  Activity: Active
A2780 [7]
  Activity: Active
SK-OV-3 [8]
  Activity: inactive
A2780 [9]
  CI: <1
A2780 [10]
  Activity: inactive
A2780 [11]
  inhibition: inactive
Mus musculus [12]
  Activity: inactive
A2780 [13]
  Activity: Active
A2780 [14]
  inhibition: inactive
A2780 [15]
  Activity: Active
A2780 [16]
  Activity: inactive
A2780 [17]
  Activity: inactive
SK-OV-3 [18]
  Activity: Active
SK-OV-3 [19]
  inhibition: Active
A2780 [20]
  inhibition: Active
SK-OV-3 [21]
  Activity: inactive
Mus musculus [22]
  Activity: Active
SK-OV-3 [23]
  Activity: Active
SK-OV-3 [24]
  inhibition: Active
A2780 [25]
  inhibition: Active
SK-OV-3 [26]
  Activity: Active
A2780 [27]
  Activity: inactive
SK-OV-3 [28]
  inhibition: Active
A2780 [29]
  inhibition: inactive
SK-OV-3 [30]
  inhibition: inactive
A2780 [31]
  inhibition: Active
SK-OV-3 [32]
  Activity: inactive
A2780 [33]
  Activity: Active
